Experiments:
[1] = molecular target: T1, recombinant Akt3 (Homo sapiens, UniProt Q9Y243); test: NADH-coupled Akt activity assay (progress curve analysis); format: biochemical
T1 construct: purchased Active Motif 31147
Text: FIGS. 20A-20H show the kinetic analysis of Akt3 covalent inhibition by MK-HNE, MK-FNE, and MK-dHNE. FIG. 20A is a schematic representation of the NADH-coupled kinetic assay to monitor the progress of Akt-catalyzed phosphorylation of the known peptide substrate, Crosstide (Akt substrate, cat. No. sc-471145, Santa Cruz). […] The solid curves are the best nonlinear fits of the data using EQN. 1. FIG. 20D is a graph showing a replot of kobs for the progress curve as a function of MK-HNE concentration. FIG. 20F is a graph showing a replot of kobs for the progress curve as a function of MK-dHNE concentration. The hyperbolic curve is the best nonlinear fit to EQN. 2. FIG. 20H is a graph showing kobs for the progress curve as a function of MK-FNE concentration fit to a cooperative binding equation using EQN 3. Inhibition of recombinant Akt3 ([…]) by MK-HNE, MK-dHNE, and MK-FNE was assayed by progress curve analysis: inhibitor was added to enzyme in assay buffer containing 100 nM Akt3 kinase, 100 μM Crosstide (Akt substrate, cat. No. sc-471145, Santa Cruz), 500 μM ATP, 4 mM TCEP, 5 mM phosphoenolpyruvate, pyruvate kinase (24-40 units/mL), lactate dehydrogenase (36-56 units/mL), 500 μM NADH and various concentrations of the inhibitor. All curves were background rate subtracted. Product formation was measured continuously for 6 min. Over this time, Akt3 activity was constant in the absence of the inhibitors.
To a 96-well plate with varying amounts of indicated inhibitors was added the kinetic assay mixture containing, in final concentrations, 50 mM HEPES, 100 mM NaCl, 10 mM MgCl2, 5 mM phosphoenolpyruvate, 500 μM NADH, 100 μM crosstide (the Akt substrate, cat. No. sc-471145, Santa Cruz), pyruvate kinase (24-40 units/mL), lactate dehydrogenase (36-56 units/mL), 4 mM TCEP, 500 μM ATP. […] The progress of phosphorylation was monitored by reading absorbance at 340 nm over the course of study. […]
To gain a more quantitative understanding of the covalent inhibitors, inhibition of Akt3 by MK-HNE in vitro was investigated. […] Loss of NADH was measured by decrease in A340 as a function of time. […]

[2] = tested on: MDA-MB-468 cells; test: Drug effect persistence assay; format: cell-based; details: for proliferation after drug withdrawal vs continuous treatment: 48 hours drug, then 24 hours without
Description: After this time, cells were lysed and analyzed by antibodies for phosphorylated T305 (pT305) of Akt3, Halo (Akt), and Actin (loading control). […] FIG. 23F is a graph showing proliferation curves. […] After this time, the number of viable cells was calculated using AlamarBlue®. Proliferation curves were fitted to the PI50 equation (EQN. 4). […] FIG. 23H is a graph showing the percentage of viable cells. […] The percentage of growth relative to DMSO-treated cells is shown for the 48 hour point and the 72 hour point. FIG. 23I is a schematic showing the different methods used to derive the data in 23H.
MDA-MB-468 cells were plated in a 96-well plate at a density of 3,000-5,000 cells per well for 10 hours before the addition of varying concentrations of inhibitors. The cells were allowed to grow for 48 hours. The cell medium was aspirated and the cells were washed once with DMEM medium. The cells continued to grow in 5% FBS DMEM medium for 24 hours before adding 1/10th volume of AlamarBlue® reagent to cells in culture medium. The fluorescence emission signals at 590 nm were read using a Cytation 3 cell imaging multi-mode reader (BioTeK) using an excitation wavelength of 560 nm. Curve fitting and data analyses were performed using Prism software (FIG. 23I).

T1 sequence (Q9Y243 whole entry): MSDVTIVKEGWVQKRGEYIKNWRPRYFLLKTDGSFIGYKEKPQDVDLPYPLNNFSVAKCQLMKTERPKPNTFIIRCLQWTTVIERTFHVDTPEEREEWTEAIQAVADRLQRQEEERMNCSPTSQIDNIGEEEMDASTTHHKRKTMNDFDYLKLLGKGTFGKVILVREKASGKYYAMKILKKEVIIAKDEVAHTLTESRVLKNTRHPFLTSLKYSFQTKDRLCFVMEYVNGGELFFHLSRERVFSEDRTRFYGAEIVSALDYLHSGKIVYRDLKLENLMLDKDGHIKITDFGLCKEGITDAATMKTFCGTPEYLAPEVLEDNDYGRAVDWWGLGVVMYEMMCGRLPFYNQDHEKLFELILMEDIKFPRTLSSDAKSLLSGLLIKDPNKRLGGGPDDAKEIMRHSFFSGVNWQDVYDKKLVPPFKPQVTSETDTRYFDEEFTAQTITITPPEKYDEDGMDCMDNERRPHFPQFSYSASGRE

C#CCCCC(O)/C=C/C(=O)NC1(c2ccc(-c3nc4ccn5c(=O)[nH]nc5c4cc3-c3ccccc3)cc2)CCC1.Cl (stereo not drawn) [MK-HNE, (E)-8-(4-(1-(4-Hydroxynon-2-en-8-ynamido)cyclobutyl)phenyl)-3-oxo-9-phenyl-2,3-dihydro-[1,2,4]triazolo[3,4-f][1,6]naphthyridin-7-ium Chloride]
inhibition profile of Akt3 ([1]; progress curves): time-dependent inhibitor

NC1(c2ccc(-c3nc4ccn5c(=O)[nH]nc5c4cc3-c3ccccc3)cc2)CCC1 [MK-2206]
proliferation after drug withdrawal vs continuous treatment [2]: significant regain of proliferation | EC60 concentration ([2]; MDA-MB-468, concentration used for 48 hours treatment): 2000 nM

C#CCCCC(F)/C=C/C(=O)NC1(c2ccc(-c3nc4ccn5c(=O)[nH]nc5c4cc3-c3ccccc3)cc2)CCC1.Cl (stereo not drawn) [MK-FNE, (E)-8-(4-(1-(4-Fluoronon-2-en-8-ynamido)cyclobutyl)phenyl)-3-oxo-9-phenyl-2,3-dihydro-[1,2,4]triazolo[3,4-f][1,6]naphthyridin-7-ium Chloride]
proliferation after drug withdrawal vs continuous treatment [2]: no difference between withdrawal (wd) and continuous (cont) treatment | n (Hill coefficient) ([1]; cooperative binding fit of kobs vs concentration): 3.2 | kinact/KI ([1]; recombinant Akt3, as stated in text): ~10000 M⁻¹ s⁻¹
